# Source: patent US11523998B2, “Anti-inflammatory formulations and uses thereof including a combination of palmitoylethanolamide and plant-based polyphenols” (The Texas A&M University System, priority 2018, dated 2022)
# Tests used:
# [1] = test system: cyclooxygenase-2 (Cox-2); experiment: Cox-2 mRNA expression (RT-qPCR) in LPS-activated RAW 264.7 macrophages; assay type: cell-based, murine; conditions: LPS 10 ng/mL; for downregulation of Cox-2 mRNA expression, compound alone: 9 h
# Method: Cells were maintained in an incubator at 37° C. with 5% CO2, and the medium was changed every two days. All assays were conducted in cells between the 3rd and the 15th passage. All treatments with PEA and other polyphenols were solubilized in dimethyl sulfoxide (DMSO) and further diluted in complete culture media immediately before use.
# Cells were pre-treated with Palmitoylethanolamide (PEA) and other compounds of interest for 1 hour and then lipopolysaccharide (LPS), a major activating agent of macrophages, was added for a final concentration of 10 ng·mL-1. Cells were then incubated for 8 hours. Negative control (culture media only) and positive (LPS) controls, as well as a Vehicle (DMSO at a maximal concentration of 0.2%)+LPS were also performed. Total RNA was extracted and purified using an RNeasy mini kit (QIAGEN, Venlo, Netherlands) according to the manufacturer's protocol. mRNA quality and quantification were assessed with NanoDrop® ND-1000 (NanoDrop Technologies, Wilmington, Del., USA). cDNA synthesis was performed with the iScript Reverse Transcription Supermix (Bio-Rad Laboratories, Hercules, Calif., USA) according to the manufacturer's protocol. RT-qPCR reactions were performed using iTaq Universal Probes Supermix (Bio-Rad Laboratories, Hercules, Calif., USA). mRNA expression cyclooxygenase-2 (Cox-2) and interleukin-1 beta (II-1β) were analyzed using beta-actin (Actb) as a reference gene. The levels of transcripts were calculated relative to the control group by the 2-ΔΔCt method.
# (§1) All data were analyzed by one-way analysis of variance (ANOVA) with Dunnet's or Sidak's posttest using GraphPad Prism 6.0 (GraphPad Software, La Jolla, Calif., USA).
# [2] = test system: interleukin-1 beta (II-1β); experiment: Il-1β mRNA expression (RT-qPCR) in LPS-activated RAW 264.7 macrophages; assay type: cell-based, murine; conditions: for reduction of IL-1β mRNA expression: 1.0 mg/L alone; for reduction of IL-1β mRNA expression, alone at same molarity: around 3.4 μM (1.0 mg/L quercetin, 0.974 mg/L luteolin)
# Method: RAW 264.7 murine macrophage cell line was purchased from American Type Culture Collection (ATCC-TIB71). Cells were cultured in high glucose Dulbecco's Modified Eagle Medium (DMEM) supplemented with stable glutamine (0.0584%) and sodium pyruvate (0.011%), 10% (v/v) heat-inactivated fetal bovine serum, and 1% (v/v) penicillin/streptomycin mix. Cells were maintained in an incubator at 37° C. with 5% CO2, and the medium was changed every two days. All assays were conducted in cells between the 3rd and the 15th passage. All treatments with PEA and other polyphenols were solubilized in dimethyl sulfoxide (DMSO) and further diluted in complete culture media immediately before use. LPS (10 ng mL-1) was used to induce inflammation in RAW 264.7 cultures.
# Murine RAW 264.7 macrophage cells (1×10^5 cells per well) were seeded in 12-well plates and incubated for 24 hours. Cells were pre-treated with Palmitoylethanolamide (PEA) and other compounds of interest for 1 hour and then lipopolysaccharide (LPS), a major activating agent of macrophages, was added for a final concentration of 10 ng·mL-1. Cells were then incubated for 8 hours. Negative control (culture media only) and positive (LPS) controls, as well as a Vehicle (DMSO at a maximal concentration of 0.2%)+LPS were also performed. Total RNA was extracted and purified using an RNeasy mini kit (QIAGEN, Venlo, Netherlands) according to the manufacturer's protocol. mRNA quality and quantification were assessed with NanoDrop® ND-1000 (NanoDrop Technologies, Wilmington, Del., USA). cDNA synthesis was performed with the iScript Reverse Transcription Supermix (Bio-Rad Laboratories, Hercules, Calif., USA) according to the manufacturer's protocol. RT-qPCR reactions were performed using iTaq Universal Probes Supermix (Bio-Rad Laboratories, Hercules, Calif., USA). mRNA expression cyclooxygenase-2 (Cox-2) and interleukin-1 beta (II-1β) were analyzed using beta-actin (Actb) as a reference gene. The levels of transcripts were calculated relative to the control group by the 2-ΔΔCt method.
# as §1
smiles,measurement,setting,value
"CCCCCCCCCCCCCCCC(=O)NCCO [PEA, N-(2-Hydroxyethyl)hexadecanamide]",expression of Cox-2,[1]; PEA 2.0 mg/L,significantly decrease
same,reduction of II-1β expression,"[2]; 0.5 mg/L alone, LPS 10 ng/mL",28%
same,expression of the inflammatory cytokine II-1β,"[2]; PEA 2.0 mg/L, after 1.0-10 ng/mL LPS",significantly decrease
same,lowest effective concentration of compound alone (II-1β expression),"[2]; LPS 10 ng/mL, 9 h",0.5 mg/L
COc1cc(CNC(=O)CCCC/C=C/C(C)C)ccc1O [capsaicin],"expression of IL-1β, compound alone (screening)","[2]; alone, LPS 10 ng/mL, 9 h",significant reduction
same,"expression of IL-1β, in combination with PEA (screening)","[2]; in combination with PEA, LPS 10 ng/mL, 9 h",significant reduction
COc1cc(/C=C/C(=O)CC(=O)/C=C/c2ccc(O)c(OC)c2)ccc1O [curcumin],reduction of IL-1β mRNA expression,[2]; LPS 10 ng/mL,~57%
same,lowest effective concentration of compound alone (II-1β expression),"[2]; LPS 10 ng/mL, 9 h",1.0 mg/L
CC(C)Cc1ccc(C(C)C(=O)O)cc1 (centres unmarked) [ibuprofen],"inflammatory state of the cells (II-1β and Cox-2 expression, screening)","[2]; tested concentration, LPS 10 ng/mL, 9 h",did not improve the inflammatory state of the cells
O=c1cc(-c2ccc(O)c(O)c2)oc2cc(O)cc(O)c12 [luteolin],"reduction of IL-1β mRNA expression, alone at same molarity","[2]; alone, 9 h",50%
O=c1c(O)c(-c2ccc(O)c(O)c2)oc2cc(O)cc(O)c12 [quercetin],reduction of IL-1β mRNA expression,[2]; LPS 10 ng/mL,around 45%
same,"reduction of IL-1β mRNA expression, alone at same molarity","[2]; alone, 9 h",78%
same,lowest effective concentration of compound alone (II-1β expression),"[2]; LPS 10 ng/mL, 9 h",1.0 mg/L
Oc1ccc(C=Cc2cc(O)cc(O)c2)cc1 [resveratrol],"downregulation of Cox-2 mRNA expression, compound alone",[1],did not reduce
same,"downregulation of Cox-2 mRNA expression, compound alone",[1]; listed as Resveratrol,no downregulation
same,"downregulation of II-1β mRNA expression, compound alone","[2]; alone, LPS 10 ng/mL, 9 h",did not reduce
same,"downregulation of II-1β mRNA expression, compound alone","[2]; alone, LPS 10 ng/mL, 9 h, listed as Resveratrol",no downregulation
